Source: US20200306283A1, “CANCER TREATMENT AND METASTASIS INHIBITION USING AN ANTI-CANCER STEM CELL AGENT IN COMBINATION WITH A NEU1 SIALIDASE INHIBITOR OR A CYTOKINE INHIBITOR AFTER PRIMARY CANCER TREATMENT” (priority 2016, published 2020)

Tests used:
[1] = test system: enriched circulating tumour cells from a patient with metastatic prostate cancer; assay: Cell proliferation / cancer stem cell markers (EpCAM, CD44, CD133) in enriched CTCs cultured with cytokine cocktails; assay type: cell-based, human; settings: for EpCAM + CD133+ cell subpopulation / EpCAM + CD133− cell subpopulation / EpCAM − CD133+ cell subpopulation / EpCAM − CD133− cell subpopulation: CD133 PE antibody cocktail; for EpCAM + CD44+ cell subpopulation / EpCAM + CD44− cell subpopulation / EpCAM − CD44+ cell subpopulation / EpCAM − CD44− cell subpopulation: cell culture period 8 days
Experimental: (§1) Cells were fixed in 1% Paraformaldehyde for 15 minutes at room temperature and run on Flowsight using 2 lasers (488 nm at 60 mW and 405 nm at 30 mW). For cell lines, 100,000 events were collected whilst for enriched CTCs all events were collected until the sample finished.
(§2) Flow cytometry data was analysed using IDEAS software. Double events, out of focus events, CD45PercPCy5.5 positive cells (in case of enriched CTCs), dead cells and non-nucleated events were eliminated from the fluorescence analysis of the cell population. FIG. 2 depicts scatterplots of flow cytometry experiments showing the enriched CTCs stained with an antibody containing CD44 after treatment with various cytokines and cytokine cocktails.
In order to determine if selected cytokines influence cell proliferation of circulating tumour cells (CTCs), whole blood was collected from a patient with metastatic prostate cancer. Circulating tumour cells were enriched from whole blood using RosetteSep CTC Enrichment cocktail. Briefly, samples of whole blood were incubated with RosetteSep (anti CD 56 for 20 minutes at room temperature). Phosphate buffered saline containing 2% Fetal Bovine Serum was added to the samples and layered on a Ficoll Paque gradient. After centrifugation, the supernatant which contained CTCs was washed twice with PBS containing 2% FBS. Equal volumes of the cell suspension were seeded into a 24-well ultra-low attachment polystyrene plate. […] FIG. 3 depicts scatterplots of flow cytometry experiments enriched CTCs stained with an antibody containing CD133 after treatment with various cytokines and cytokine cocktails.
FIG. 6 depicts cell proliferation of subpopulations in cultured CTCs after exposure to various cytokines and cytokine cocktails. Cells were stained using an antibody containing CD44 PE.
Cells were stained using an antibody containing CD133 PE.

HCT-15 cells = assay: Cell subpopulations (CD44/CD24) in HCT-15 cell line after cytokine exposure, imaging flow cytometry; assay type: cell-based; set-up: unit not given here; settings: HCT-15 cells after exposure to cytokines singly or in pairs
Experimental: Two authenticated colorectal carcinoma cell lines, HCT-15 and SW-620, were used to test the effect of different cytokine and cytokine cocktails, including IL-6, HGF, PGE-2, TGF-beta and MMP-9 alone or in a cocktail, on cell proliferation, EMT and cancer stem cell populations.
In order to evaluate stem cell populations, cells were synchronized by serum starvation for 72 hours before seeding in 24-well ultra low attachment plates at a density of 200,000 cells/well. Cells were then detached using trypsin EDTA and washed twice with PBS (without Calcium or Magnesium). A cell proliferation dye, eFluor 450 was used to label cells. Cells were grown with DMEM with high glucose and 2 mM Gluatmine without FBS in the presence of selected cytokines and or cytokine cocktails over a period of 72 hrs.
Cells that were grown in 5% serum were stained with the following antibody cocktails: CD24FITC, CD44PE and CD24FITC, CD133PE. Cells were also stained with a fixable live/dead efluor dye 506 to exclude dead cells. In parallel, cells were grown in the presence of 5% serum to evaluate CSC markers.
as §1
as §2, with “cocktails. Hoescht 33258 dye was used to stain nuclei in the case of the HCT-15 cell line and enriched CTCs. All experiments were stained with a fixable live/dead dye eFluor 506 to exclude dead cells.” for “cocktails.”
To evaluate which cocktail combinations were most likely involved in cell proliferation of presumed quiescent stem cells or de-differentiated stem cell-like cells, four cytokines, IL-6, HGF, PGE-2 and TGF-beta were added singly or in pairs to HCT-15 cells. Results of combinations that influenced cell proliferation of HCT-15 cells in culture are presented. […] FIG. 4 depicts cell proliferation of subpopulations in the HCT-15 cell line after exposure to various cytokines and cytokine cocktails.

SW-620 cells = SW-620 cells treated with cytokines with or without Irinotecan, flow cytometry for stem cell markers and apoptosis; assay type: cell-based, human; settings: SW-620, cytokines 24 hours then 2 μM Irinotecan 36 hours; zero in non-treated control cells
Experimental: SW-620 cells, a human colorectal adenocarcinoma cell line, were treated with cytokines alone or in combination including IL-6, TGF-beta, HGF, PGE-2, IL-6+PGE-2 and TGF-beta+HGF for 24 hours and compared to untreated SW-620 cells as control. Some treated and untreated SW-620 cells were then exposed to 2 μM Irinotecan for 36 hours at which point cells were harvested for flow cytometry to assess for stem cell markers and markers of apoptosis. The percentage of CD44+CD133− cells following treatment with various cytokine and cytokine cocktails is depicted in FIG. 10. Compared to non-cytokine treated cells, combinations with IL-6+PGE-2, and TGF-beta+HGF increased the number and percentage of cells that were CD44+CD133− as shown in FIG. 10 (stem cells). FIG. 11 depicts the percentage of CD44+CD133− cells following treatment with various cytokines and Irinotecan. […]
Additionally, the percentage of CD44-CD133+ cells following treatment with various cytokines and cytokines cocktails was determined as depicted in FIG. 16. The percentage of CD44-CD133+ cells following treatment with various cytokines and Irinotecan was measured as depicted in FIG. 17. The percentage of CD44-CD133+ cells following treatment with various cytokine cocktails and Irinotecan was measured as depicted in FIG. 18. […]

[2] = test system: Panc1, Panc1-gemr, Panc1-cisr and Panc1-gemr/cisr cells; assay: Immunocytochemistry of E-, N- and VE-cadherin on Panc1 and chemoresistant Panc1 cells after Tamiflu (FIG. 25); assay type: cell-based, human; settings: Tamiflu 600 μg/mL for 24 hours, Panc1 and drug resistant lines
Experimental: Turning to FIG. 25, oseltamivir phosphate by itself was able to reverse a partial EMT in human PANC1 cancer cell lines, including drug resistant cancer cell lines as evidenced by an upregulation in the epithelial marker E-cadherin and a downregulation in the mesenchymal marker N-cadherin. Expression of e-cadherin, n-cadherin, and Ve-cadherin on the surface of Pancl, Pancl-gemr, Pancl-cisr, and Pancl-gemr/cisr cells were determined following treatment with Tamiflu® 600 μg/mL for 24 hours. Immunocytochemistry was performed on fixed, nonpermeabilized cells. The indicated primary antibodies for Ecadherin, N-cadherin, and Ve-cadherin were used, followed by alexa Fluor® 594 (life Technologies inc, Burlington, ON, Canada) secondary antibody for the primary antibody against n-cadherin and Dylight™ 488 (santa cruz Biotechnology, inc, santa cruz, ca, Usa) secondary antibody for primary antibodies against e-cadherin and Ve-cadherin. The background controls had no primary antibody during the staining procedure. The stained cells were visualized after 24 hours using a Zeiss M2 Imager fluorescence microscope (Carl Zeiss ag, Oberkochen, germany) at 400× magnification. Images are representative of at least four fields of view in three separate trials. Quantitative analysis was done by assessing the density of cell staining corrected for background in each panel using corel Photo Paint 8.0 software (Corel Corporation, Ottawa, ON, Canada). each bar in the figures represents the mean (±standard error of the mean) corrected density of culture cell staining for equal cell density (5×10^5 cells) within the respective images. P-values represent significant differences at 95% confidence using Dunnett's multiple comparison test compared with untreated control group. (Abbreviations: 1° ab=primary antibody; Pancl-gemr=Pancl cells with established chemoresistance to 0.01 μM gemcitabine; Pancl-gemr/cisr=Pancl cells with established chemoresistance to a combination of 0.01 μM gemcitabine and 80 μM cisplatin; cad=cadherin; Bkg=background; se=standard error.)

[3] = test system: enriched circulating tumour cells from a patient with colorectal cancer; assay: Cultured enriched CTCs from a colorectal cancer patient treated with IL-6, IL-8 or PDGFBB (EpCAM, CD133, Lgr5 flow cytometry); assay type: cell-based, human; settings: cultured CTCs from colorectal cancer patient
Text: A blood sample was collected from a patient with colorectal cancer six days after surgery. Blood samples were enriched for CTCs using RosetteSep CD 56 kit according to standard protocol. Prior to cell culture, cells were stained with the following antibody cocktail: EpCAM A488, CD133PE, CD 45 PerCP Cy5.5, and Lgr5-PE-Vio770. Cells were either cultured in low attachment well plates without cytokines (control cells) or with three different cytokines (IL-6, IL-8 or PDGFBB).
Flow cytometry data was analysed using IDEAS software. Double events, out of focus events, CD45PercPCy5.5 positive cells, dead cells and non-nucleated events were eliminated from the fluorescence analysis of the cell population. Hoescht 33258 dye was used to stain nuclei of enriched CTCs. All experiments were stained with a fixable live/dead dye eFluor 506 to exclude dead cells.

[4] = listed as Oseltamivir Phosphate

## CCCCC[C@H](O)/C=C/[C@H]1[C@H](O)CC(=O)[C@@H]1C/C=C\CCCC(=O)O [PGE-2, prostaglandin E2, reference compound]
[1]; 8 days culture, no serum, CD44PE antibody cocktail
  EpCAM-CD44+ cell sub-population: 4.23 % gated
[1]
  EpCAM + CD133+ cell subpopulation: 10.4 percentages of gated subpopulations
  EpCAM + CD133− cell subpopulation: 0 percentages of gated subpopulations
  EpCAM − CD133+ cell subpopulation: 86.7 percentages of gated subpopulations
  EpCAM − CD133− cell subpopulation: 2.61 percentages of gated subpopulations
[1]; CD44PE antibody cocktail
  EpCAM + CD44+ cell subpopulation: 27.2 percentage of gated cells
  EpCAM + CD44− cell subpopulation: 1.75 percentage of gated cells
  EpCAM − CD44+ cell subpopulation: 4.23 percentage of gated cells
  EpCAM − CD44− cell subpopulation: 65.5 percentage of gated cells
HCT-15 cells
  CD24 + CD44− cell subpopulation: 58.7
  CD44 + CD24+ cell subpopulation: 7.3
  CD44 + CD24− cell subpopulation: 0.61
  CD44 − CD24− cell subpopulation: 32.4
SW-620 cells
  percentage of CD44+CD133− stem cells: enriched

## CCOC(=O)C1=C[C@@H](OC(CC)CC)[C@H](NC(C)=O)[C@@H](N)C1 [oseltamivir phosphate]
[2]
  E-cadherin expression on cell surface: upregulation
  N-cadherin expression on cell surface: downregulation
  VE-cadherin expression on cell surface: significant downregulation
[2]; [4]
  E-cadherin expression on cell surface: statistically significant upregulation in the epithelial marker E-Cadherin in all 4 cell lines tested with the exception of the double resistant pancreatic cell line
  N-cadherin expression on cell surface: Downregulation of N cadherin was seen in all cell lines tested

## HGF: Hepatocyte Growth Factor added to cancer cells in culture
[1]
  EpCAM + CD133+ cell subpopulation: 17.2 percentages of gated subpopulations
  EpCAM + CD133− cell subpopulation: 0.2 percentages of gated subpopulations
  EpCAM − CD133+ cell subpopulation: 80.8 percentages of gated subpopulations
  EpCAM − CD133− cell subpopulation: 1.58 percentages of gated subpopulations
[1]; CD44PE antibody cocktail
  EpCAM + CD44+ cell subpopulation: 16.8 percentage of gated cells
  EpCAM + CD44− cell subpopulation: 4.89 percentage of gated cells
  EpCAM − CD44+ cell subpopulation: 2.12 percentage of gated cells
  EpCAM − CD44− cell subpopulation: 74.9 percentage of gated cells
HCT-15 cells
  CD24 + CD44− cell subpopulation: 58.6
  CD44 + CD24+ cell subpopulation: 3.29
  CD44 + CD24− cell subpopulation: 0.31
  CD44 − CD24− cell subpopulation: 35.9

## Il-8
[3]
  EpCAM + CD133+ cell subpopulation: 0.13 percentages of gated subpopulations
  EpCAM + CD133− cell subpopulation: 2.51 percentages of gated subpopulations
  EpCAM − CD133+ cell subpopulation: 0.09 percentages of gated subpopulations
  EpCAM − CD133− cell subpopulation: 90.8 percentages of gated subpopulations
